A short description of data set [1]: Body (rectal) temperature. The conditions noted are these: 5 or 20 mg per kg; FIG. 4e. It counts as in vivo, rat. Here is the method:
(§1) Other behavioral assays. The elevated plus maze test was conducted as described (Navarro et al., Neuroreport, 8:491-496 (1997)) after the administration of vehicle or OEA (20 mg per kg, i.p.). Horizontal activity in an open field (Beltramo et al., J. Neurosci., 20:3401-3407 (2000)) and pain threshold in the hot plate test (55° C.) (Beltramo et al., Science, 277:1094-1097 (1997)) were measured 15 min after injection of vehicle or OEA (20 mg per kg). Rectal temperature was measured using a digital thermometer (Martin-Calderón et al., Eur. J. Pharmacol., 344:77-86. (1998)).

Data set [2] is described as follows: Open field activity test. It counts as in vivo, rat. To be noted: at a dose substantially higher than those required to produce hypophagia; FIG. 4h. Here is the method:
as §1

Data set [3] has as its system Cardiomyocyte. Put plainly: [14C]oleate oxidation to CO2 in cardiomyocytes. It is filed as cell-based, rat.
Data set [4] is described as follows: Elevated plus maze anxiety test. It counts as in vivo, rat. To be noted: FIG. 4g. As to the method: as §1
The test system of data set [5] is Astrocyte. Put plainly: [14C]oleate oxidation to ketone bodies in astrocytes. It is filed as cell-based, rat.
Data set [6] is described as follows: Food intake in capsaicin-treated rats (sensory fibers destroyed). It counts as in vivo, rat. To be noted: OEA 10 mg per kg, i.p., FIG. 6a,c. The source says:
Chemicals. FAEs and [^2H4] FAEs were synthesized in the laboratory (Giuffrida et al., “Lipid Second Messengers” (ed. Laychock, S. G. & Rubin, R. P.) 113-133 (CRC Press LLC, Boca Raton, Fla., 1998)); 1,2-dioleyl-sn-glycero-phosphoethanolamine-N-oleyl was purchased from Avanti Polar Lipids (Alabaster, Ala.); SR141716A was provided by RBI (Natick, Mass.) as part of the Chemical Synthesis Program of the NIMH (N01MH30003); SR144528 was a generous gift of Sanofi Recherche; all other drugs were from Tocris (Ballwin, Mo.) or Sigma (Saint Louis, Mo.). FAE were dissolved in dimethylsulphoxide (DMSO) and administered in 70% DMSO in sterile saline (acute treatments) or 5% Tween 80/5% propylenglycol in sterile saline (subchronic treatments) (1 ml per kg, i.p.). Capsaicin was administered in 10% Tween 80/10% ethanol/80% saline; SR141716A, SR144528, CCK-8 and CP-93129 in 5% Tween 80/5% propylenglycol/90% saline (1 ml per kg, i.p.).
These findings support the hypothesis that OEA causes hypophagia by acting at a peripheral site, and that sensory fibers are required for this effect.

Data set [7] can be described thus: Circulating OEA level after i.p. administration (HPLC/MS). It counts as in vivo. To be noted: rat, plasma, ip, 1 hr after 5 mg per kg, read-out: circulating OEA levels. Here is the method:
HPLC/MS analyses. Plasma was prepared from blood obtained by cardiac puncture (Giuffrida et al., Anal. Biochem., 280:87-93 (2000)) and CSF was collected from the cisterna magna using a 27G ½ needle (Precisionglide, USA). FAEs and NAPE were extracted from tissues with methanol/chloroform and fractionated by column chromatography (Giuffrida et al., “Lipid Second Messengers” (ed. Laychock, S. G. & Rubin, R. P.) 113-133 (CRC Press LLC, Boca Raton, Fla., 1998)). FAEs were quantified by HPLC/MS, using an isotope dilution method (Giuffrida et al., Anal. Biochem., 280:87-93 (2000)). Individual NAPE species were identified and quantified by HPLC/MS, using an external standard method (Calignano et al., Nature, 408:96-101 (2000)).
OEA elicits hypophagia at physiologically relevant doses. […] Thus, the concentrations reached by OEA in blood during starvation can be sufficient to elicit notable behavioral responses.

Data set [8] can be described thus: Hot plate test, pain threshold. It is filed as in vivo, rat. To be noted: FIG. 4f. Here is the method:
as §1
Background: In hot-plate and tail-flick tests a longer latency is read as antinociception.

These results are taken from patent US6911474B2, “Methods, compounds, and compositions for reducing body fat and modulating fatty acid metabolism” (The Regents of the University of California, priority 2001, dated 2005).

On to `CCCCCCCC/C=C\CCCCCCCC(=O)NCCO` [OEA, Oleoylethanolamide], for which the body temperature result in data set [1] is “did not alter”. In addition, the motor activity entry in data set [2] is given as “reduced”. In data set [3] (Cardiomyocyte, 10 μM, 30 min incubation), the “Stimulatory effect of 10 μM OEA (%) on [14C]oleate oxidation to CO2” value is recorded as 37 ± 9%. The “fatty acid oxidation in words” value in data set [3] (primary cultures of heart cells) is “significantly stimulates”; in data set [5] (brain-derived astroglial cell cultures) it was “no effect”. Also, in data set [4], the anxiety-like symptoms entry was “did not produce anxiety-like symptoms”. Further, the “Stimulatory effect of 10 μM OEA (%) on [14C]oleate oxidation to ketone bodies” value in data set [5] (Astrocyte, 10 μM, 30 min incubation) was determined as 2 ± 6%. In addition, in data set [6], the “food intake response of capsaicin-treated rats” value was “failed to respond”. Moreover, in data set [7], the concentration at 1 hr turned out to be 16.1 ± 2.6 nM. Besides, the pain threshold entry in data set [8] was “did not alter”.
